Results taken from patent US12590099B2, “Inhibitors of histone deacetylase useful for the treatment or prevention of HIV infection” (Merck Sharp & Dohme LLC, priority 2018, dated 2026).
Like-named read-outs stand apart in the source and are kept apart here.

Experiments:
Recombinant human HDAC8 = biological target: T1, Recombinant human HDAC8 (Homo sapiens, UniProt Q9BY41); test: Human HDAC enzyme inhibitor Fluor-de-Lys assay, HDAC8; assay type: biochemical; conditions: recombinant human HDAC8, Fluor-de-Lys assay
T1 construct: purchased Enzo Life Sciences BML-SE145-0100
T1 sequence (Q9BY41 1-377): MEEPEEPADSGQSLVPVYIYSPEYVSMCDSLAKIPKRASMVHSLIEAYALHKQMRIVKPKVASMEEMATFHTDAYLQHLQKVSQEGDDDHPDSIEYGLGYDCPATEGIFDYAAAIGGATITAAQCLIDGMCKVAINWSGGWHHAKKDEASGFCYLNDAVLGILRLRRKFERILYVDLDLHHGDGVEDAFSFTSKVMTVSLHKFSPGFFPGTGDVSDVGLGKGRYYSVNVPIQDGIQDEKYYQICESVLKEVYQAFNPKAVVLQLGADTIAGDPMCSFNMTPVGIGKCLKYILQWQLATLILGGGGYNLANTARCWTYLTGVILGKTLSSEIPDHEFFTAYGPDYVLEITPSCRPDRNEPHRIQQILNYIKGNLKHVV

Recombinant human HDAC2 = biological target: T2, Recombinant human HDAC2 (Homo sapiens, UniProt Q92769); test: Human HDAC enzyme inhibitor Fluor-de-Lys assay, HDAC2; assay type: biochemical; conditions: recombinant human HDAC2, Fluor-de-Lys assay
T2 construct: Full length human HDAC2-FLAG was expressed in baculovirus infected Sf9 cells; FLAG (C); made in house; host or cells: Sf9 (baculovirus)
T2 sequence (Q92769 whole entry): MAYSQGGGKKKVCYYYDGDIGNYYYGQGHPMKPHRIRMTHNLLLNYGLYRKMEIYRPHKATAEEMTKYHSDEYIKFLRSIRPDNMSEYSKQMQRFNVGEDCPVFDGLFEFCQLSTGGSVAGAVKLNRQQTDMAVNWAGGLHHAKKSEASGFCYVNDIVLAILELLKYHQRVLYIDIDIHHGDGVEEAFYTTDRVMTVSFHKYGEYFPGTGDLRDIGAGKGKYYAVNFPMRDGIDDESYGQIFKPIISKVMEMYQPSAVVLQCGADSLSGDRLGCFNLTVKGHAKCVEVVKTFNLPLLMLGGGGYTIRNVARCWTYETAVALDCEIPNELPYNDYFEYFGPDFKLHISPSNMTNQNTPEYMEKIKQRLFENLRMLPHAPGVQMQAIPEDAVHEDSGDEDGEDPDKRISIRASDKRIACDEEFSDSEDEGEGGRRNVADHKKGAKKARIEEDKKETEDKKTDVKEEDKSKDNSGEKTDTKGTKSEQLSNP
In short: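 Fluor-de-Lys format at room temperature (23° C.): compounds titrated 10-point, 1:3, preincubated with HDAC before substrate addition. Developer with excess HDAC inhibitor ends the reaction, and trypsin-liberated AMC fluorescence is the read-out.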

KARN cells (Jurkat 2C4) = test: cells; assay type: cell-based; conditions: luciferase induction, 100% = 2 μM SAHA
In short: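 Jurkat 2C4 (KARN) cells dosed with test compounds up to 40 μM final, 0.4% DMSO, overnight at 5% CO2; luciferase read by Steady-Glo luminescence after 10 min at room temperature. DMSO set as 0% and 2 μM SAHA as 100% induction; 4-parameter fit of percent activation.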

Recombinant human HDAC1 = biological target: T3, Recombinant human HDAC1 (Homo sapiens, UniProt Q13547); test: Human HDAC enzyme inhibitor Fluor-de-Lys assay, HDAC1; assay type: biochemical; conditions: recombinant human HDAC1, Fluor-de-Lys assay
T3 construct: FLAG (C); made in house
T3 sequence (Q13547 whole entry): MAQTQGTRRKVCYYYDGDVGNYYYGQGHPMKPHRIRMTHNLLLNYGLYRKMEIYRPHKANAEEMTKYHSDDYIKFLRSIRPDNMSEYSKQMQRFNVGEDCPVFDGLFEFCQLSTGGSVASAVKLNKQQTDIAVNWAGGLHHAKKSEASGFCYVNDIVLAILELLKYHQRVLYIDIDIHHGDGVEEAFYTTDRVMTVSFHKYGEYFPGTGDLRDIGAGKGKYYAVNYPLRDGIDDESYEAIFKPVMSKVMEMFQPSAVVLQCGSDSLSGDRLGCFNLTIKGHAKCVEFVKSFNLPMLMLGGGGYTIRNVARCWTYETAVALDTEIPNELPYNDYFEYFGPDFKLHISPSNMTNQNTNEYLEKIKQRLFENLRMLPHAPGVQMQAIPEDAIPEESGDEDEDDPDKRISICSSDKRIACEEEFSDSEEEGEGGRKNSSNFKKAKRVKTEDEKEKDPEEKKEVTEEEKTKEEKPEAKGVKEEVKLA
In short: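 Fluor-de-Lys format at room temperature (23° C.): compounds titrated 10-point, 1:3, preincubated with HDAC before substrate addition; HDAC1 run at 0.3 nM enzyme with 20 μM BML-KI104. Developer with excess HDAC inhibitor ends the reaction, and trypsin-liberated AMC fluorescence is the read-out.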

[1] = Homo sapiens, Jurkat, read-out: Karn EC50 (nM) 0.1% NHS, 0.1% normal human serum
[2] = Homo sapiens, Jurkat, read-out: Karn EC50 (nM) 5% NHS, 5% normal human serum

SMILES	IC50 (Recombinant human HDAC8) [µM]	IC50 (Recombinant human HDAC2) [nM]	EC50 (KARN cells (Jurkat 2C4); [1]) [nM]	EC50 (KARN cells (Jurkat 2C4); [2]) [nM]	IC50 (Recombinant human HDAC1) [nM]	EC50 (KARN cells (Jurkat 2C4); read-out: Karn EC50 (nM) 0.1% NHS, 0.1% normal human serum) [nM]	EC50 (KARN cells (Jurkat 2C4); read-out: Karn EC50 (nM) 5% NHS, 5% normal human serum) [nM]
CCC(=O)CCCCC[C@H](NC(=O)C1=NOC2(CCN(CC3CC3)CC2)C1)c1ncc(-c2cc3ccc(=O)n(C)c3cc2OC)o1 [Compound 236]	> 0.9	9.9	442	476	0.36		
CCC(=O)CCCCC[C@H](NC(=O)C1=NOC2(CCN(C)CC2)C1)c1ncc(-c2ccc(-c3cnccn3)cc2OC)o1 [Compound 237, N-{(1S)-1-[5-(2-methoxy-4-pyrazin-2-ylphenyl)-1,3-oxazol-2-yl]-7-oxononyl}-8-methyl-1-oxa-2,8-diazaspiro[4.5]dec-2-ene-3-carboxamide]	> 0.9	27.2	235	274	2.41		
CCC(=O)CCCCC[C@H](NC(=O)[C@H]1CC12CCN(CC)CC2)c1ncc(-c2ccc3nn(C4CC4)cc3c2)[nH]1 [Compound 238]	6.5	1.9	66	45	0.22		
CCCC(=O)CCCCC[C@H](NC(=O)[C@H]1CC12CCN(C)CC2)c1ncc(-c2ccc(F)cc2)[nH]1 [Compound 239]	20.6	77.4	324	581	13.9		
CCC(=O)CCCCC[C@H](NC(=O)[C@H]1CC12CCN(C)CC2)c1[nH]c(-c2ccc(F)cc2)nc1Cl [Compound 240]	26.7	38.1	247	346	5.73		
CCC(=O)CCCCC[C@H](NC(=O)C1CC12CCN(CC)CC2)c1nc(-c2ccc(F)cc2)[nH]c1-c1cnc(OC)nc1 (stereo partly shown) [Compound 247]	21.8	214	9640	10800	39		
CCC(=O)CCCCC[C@H](NC(=O)C1CC12CCN(CC)CC2)c1nc(-c2ccc(F)cc2)[nH]c1-c1cnn(C)c1 (stereo partly shown) [Compound 248]	22.3	24.1	183	429	5.84		
CCC(=O)CCCCC[C@H](NC(=O)C1CC12CCN(CC)CC2)c1nc(-c2ccc(F)cc2)[nH]c1-c1cn[nH]c1 (stereo partly shown) [Compound 249]	31.5	88.3	> 40000		17.4		
CCC(=O)CCCCC[C@H](NC(=O)C1CC12CCN(CC)CC2)c1nc(-c2ccc(F)cc2)[nH]c1-c1ccsc1 (stereo partly shown) [Compound 250]	38.3	192	3730	4100	80.7		
CCC(=O)CCCCC[C@H](NC(=O)C1CC12CCN(CC)CC2)c1nc(-c2ccc(F)cc2)[nH]c1-c1ccn(C)c1 (stereo partly shown) [Compound 251]	29.4	12.6	143	216	2.73		
CCC(=O)CCCCC[C@H](NC(=O)C1CC12CCN(CC)CC2)c1nc(-c2ccc(F)cc2)[nH]c1-c1cccs1 (stereo partly shown) [Compound 252]	29.6	185	1600	2880	56.6		
CCC(=O)CCCCCC(NC(=O)C1CC12CCN(CC)CC2)c1nc(-c2ccc(F)cc2)[nH]c1-c1ccnn1C (stereo not shown) [Compound 253]	26.8	111	1870	2340	30.4		
CCCn1cc(-c2[nH]c(-c3ccc(F)cc3)nc2C(CCCCCC(=O)CC)NC(=O)C2CC23CCN(CC)CC3)cn1 (stereo not shown) [Compound 254]	38.7	131	5340	6040	29.4		
CCC(=O)CCCCC[C@H](NC(=O)[C@H]1CC12CCN(C)CC2)c1ncc(-c2cnc(OC)nc2)[nH]1 [Compound 255]	5.79	491	13300	14800	168		
CCC(=O)CCCCC[C@H](NC(=O)[C@H]1CC12CCN(C)CC2)c1ncc(-c2cnc3c(c2)ncn3C)[nH]1 [Compound 256]	1.1	280	23700	> 40000	74.6		
CCC(=O)CCCCC[C@H](NC(=O)[C@H]1CC12CCN(C)CC2)c1ncc(-c2cnc(-n3cc(C)cn3)nc2)[nH]1 [Compound 257]	10.4	185	8080	10600	64.8		

SMILES	IC50 (Recombinant human HDAC8) [µM]	IC50 (Recombinant human HDAC2) [nM]	EC50 (KARN cells (Jurkat 2C4); [1]) [nM]	EC50 (KARN cells (Jurkat 2C4); [2]) [nM]	IC50 (Recombinant human HDAC1) [nM]	EC50 (KARN cells (Jurkat 2C4); read-out: Karn EC50 (nM) 0.1% NHS, 0.1% normal human serum) [nM]	EC50 (KARN cells (Jurkat 2C4); read-out: Karn EC50 (nM) 5% NHS, 5% normal human serum) [nM]
CCC(=O)CCCCC[C@H](NC(=O)[C@H]1CC12CCN(C)CC2)c1ncc(-c2ccc(C(=O)NC3CCOC3)cc2)[nH]1 (stereo partly shown) [Compound 258]	16.4	23.8	7440	7840	7.82		
CCC(=O)CCCCC[C@H](NC(=O)[C@H]1CC12CCN(C)CC2)c1ncc(-c2cnc3cccnc3c2)[nH]1 [Compound 259]	6.14	95	7930	8180	23.8		
CCC(=O)CCCCC[C@H](NC(=O)[C@H]1CC12CCN(C)CC2)c1ncc(-c2ccc(-n3nc(C)cc3C)cc2)[nH]1 [Compound 260]	> 15	52.5	717	913	13.1		
CCC(=O)CCCCC[C@H](NC(=O)[C@H]1CC12CCN(C)CC2)c1ncc(-c2ccnc(N3CCOCC3)c2F)[nH]1 [Compound 261]	4.59	102	1380	1500	25.2		
CCC(=O)CCCCC[C@H](NC(=O)[C@H]1CC12CCN(C)CC2)c1ncc(-c2ccc(-c3cccnc3)nc2)[nH]1 [Compound 262]	12.6	18.8	773	851	4.42		
CCC(=O)CCCCC[C@H](NC(=O)[C@H]1CC12CCN(C)CC2)c1ncc(-c2cn(C)c3ccccc23)[nH]1 [Compound 264]	1.14	5.9	78	143	1.79		
CCC(=O)CCCCC[C@H](NC(=O)[C@H]1CC12CCN(C)CC2)c1ncc(-c2ccc3c(c2)c2ccccc2n3C)[nH]1 [Compound 265]	4.6	12.4	142	370	5.14		
CCOc1ncc(-c2cnc([C@H](CCCCCC(=O)CC)NC(=O)[C@H]3CC34CCN(C)CC4)[nH]2)cn1 [Compound 266]	19.3	372	9900	13800	155		
CCC(=O)CCCCC[C@H](NC(=O)[C@H]1CC12CCN(C)CC2)c1ncc(-c2ccc(C)nc2OC)[nH]1 [Compound 268]	6.08	17.2	205	330	3.89		
CCC(=O)CCCCC[C@H](NC(=O)C1=NOC2(CCN(CC)CC2)C1)c1ncc(-c2cc3ccc(C)nc3cc2F)o1 [Compound 269]	> 0.9	36.7			5.18	746	1210
CCC(=O)CCCCC[C@H](NC(=O)C1CCC2(CC1)CN(C(C)C)C2)c1ncc(-c2cc3ccccc3nc2OC)[nH]1 [Compound 272]	1.25	8.2	163	721	2.08		
CCC(=O)CCCCC[C@H](NC(=O)CC1CC2(C1)CN(C(C)C)C2)c1ncc(-c2cc3ccccc3nc2OC)[nH]1 [Compound 273]	1.96	3.4	111	438	< 1.5		
CCC(=O)CCCCC[C@H](NC(=O)C1(N)CC2(CN(C)C2)C1)c1ncc(-c2cc3ccccc3nc2OC)[nH]1 [Compound 276]	5	9.1	1560	4780	1.56		
CCC(=O)CCCCC[C@H](NC(=O)[C@H]1CC12CCN(C)CC2)c1ncc(-c2ccc(F)cc2)[nH]1 [Compound 280]	10.8	122	1020	919	30		
CCC(=O)CCCCC[C@H](NC(=O)[C@H]1CC12CCN(C)CC2)c1ncc(-c2ccc(C(F)(F)F)cc2)[nH]1 [Compound 284]	15	82.1	606	598	18.6		
